Data taken from US10004701B2, “Methods and compositions for treating infection” (UNIVERSITY OF ROCHESTER, priority 2012, dated 2018).
Structures can show the parent of a compound that is named as a salt. Where two headings read alike, the source gives them in different places.

Legend:
Experiment in all cases: AK assay 384-well format, Prestwick library screening
K. pneumoniae = format: cell-based, Klebsiella pneumoniae; conditions: Klebsiella pneumoniae, 3 h, 50 μM final drug concentration
E. coli = format: cell-based, Escherichia coli; conditions: Escherichia coli, 3 h, 50 μM final drug concentration
E. faecium = format: cell-based, Enterococcus faecium; conditions: Enterococcus faecium, 3 h, 50 μM final drug concentration
E. cloacae = format: cell-based, Enterobacter cloacae; conditions: Enterobacter cloacae, 3 h, 50 μM final drug concentration
P. aeruginosa = format: cell-based, Pseudomonas aeruginosa; conditions: Pseudomonas aeruginosa, 3 h, 50 μM final drug concentration
[1] = tested on: S. aureus strain USA300-0114; format: cell-based, Staphylococcus aureus; conditions: Staphylococcus aureus, USA300, 3 h, 50 μM final drug concentration
[2] = tested on: A. baumannii strain 98-37-09; format: cell-based, Acinetobacter baumannii; conditions: Acinetobacter baumannii, 983709, 3 h, 50 μM final drug concentration
[3] = planktonic, […], read-out: AK-based Prestwick Library Screening Results, K. pneumoniae (fold increase in extracellular AK activity)
[4] = planktonic, […], read-out: AK-based Prestwick Library Screening Results, E. coli (fold increase in extracellular AK activity)
[5] = planktonic, […], read-out: AK-based Prestwick Library Screening Results, E. faecium (fold increase in extracellular AK activity)
[6] = planktonic, […], read-out: AK-based Prestwick Library Screening Results, E. cloacae (fold increase in extracellular AK activity)
[7] = planktonic, […], read-out: AK-based Prestwick Library Screening Results, P. aeruginosa (fold increase in extracellular AK activity)
[8] = planktonic, […], read-out: AK-based Prestwick Library Screening Results, S. aureus (fold increase in extracellular AK activity)
[9] = planktonic, […], read-out: AK-based Prestwick Library Screening Results, A. baumannii (fold increase in extracellular AK activity)

COc1ccc(C[C@H](N)C(=O)N[C@H]2[C@@H](O)[C@H](n3cnc4c(N(C)C)ncnc43)O[C@@H]2CO)cc1 [Puromycin dihydrochloride]
fold induction at 50 µM (K. pneumoniae; planktonic, cutoff for positive 3-fold increase, read-out: AK-based Prestwick Library Screening Results, K. pneumoniae (fold increase in extracellular AK activity)): 1.1 | fold induction at 50 µM (E. coli; planktonic, cutoff for positive 3-fold increase, read-out: AK-based Prestwick Library Screening Results, E. coli (fold increase in extracellular AK activity)): 1.1 | fold induction at 50 µM (E. faecium; planktonic, cutoff for positive 3-fold increase, read-out: AK-based Prestwick Library Screening Results, E. faecium (fold increase in extracellular AK activity)): 1.1 | fold induction at 50 µM (E. cloacae; planktonic, cutoff for positive 3-fold increase, read-out: AK-based Prestwick Library Screening Results, E. cloacae (fold increase in extracellular AK activity)): 1.4 | fold induction at 50 µM (P. aeruginosa; planktonic, cutoff for positive 3-fold increase, read-out: AK-based Prestwick Library Screening Results, P. aeruginosa (fold increase in extracellular AK activity)): 1 | fold induction at 50 µM ([1]; planktonic, cutoff for positive 3-fold increase, read-out: AK-based Prestwick Library Screening Results, S. aureus (fold increase in extracellular AK activity)): 1.1 | fold induction at 50 µM ([2]; planktonic, cutoff for positive 3-fold increase, read-out: AK-based Prestwick Library Screening Results, A. baumannii (fold increase in extracellular AK activity)): 1.6

NC(=O)c1cnccn1 [Pyrazinamide]
fold induction at 50 µM (K. pneumoniae; planktonic K. pneumoniae, cutoff for positive-scoring molecules 3-fold increase, read-out: AK-based Prestwick Library Screening Results, K. pneumoniae (increase in extracellular AK activity)): 0.8 | fold induction at 50 µM (E. coli; planktonic E. coli, cutoff for positive-scoring molecules 3-fold increase, read-out: AK-based Prestwick Library Screening Results, E. coli (increase in extracellular AK activity)): 0.9 | fold induction at 50 µM (E. faecium; planktonic E. faecium, cutoff for positive-scoring molecules 3-fold increase, read-out: AK-based Prestwick Library Screening Results, E. faecium (increase in extracellular AK activity)): 0.8 | fold induction at 50 µM (E. cloacae; planktonic E. cloacae, cutoff for positive-scoring molecules 3-fold increase, read-out: AK-based Prestwick Library Screening Results, E. cloacae (increase in extracellular AK activity)): 1.2 | fold induction at 50 µM (P. aeruginosa; planktonic P. aeruginosa, cutoff for positive-scoring molecules 3-fold increase, read-out: AK-based Prestwick Library Screening Results, P. aeruginosa (increase in extracellular AK activity)): 0.8 | fold induction at 50 µM ([1]; planktonic S. aureus, cutoff for positive-scoring molecules 3-fold increase, read-out: AK-based Prestwick Library Screening Results, S. aureus (increase in extracellular AK activity)): 0.7 | fold induction at 50 µM ([2]; planktonic A. baumannii, cutoff for positive-scoring molecules 3-fold increase, read-out: AK-based Prestwick Library Screening Results, A. baumannii (increase in extracellular AK activity)): 0.9

Cc1ncc(CO)c(CO)c1O [Pyridoxine hydrochloride]
fold induction at 50 µM (K. pneumoniae; [3]): 1.1 | fold induction at 50 µM (E. coli; [4]): 1.4 | fold induction at 50 µM (E. faecium; [5]): 1 | fold induction at 50 µM (E. cloacae; [6]): 1.7 | fold induction at 50 µM (P. aeruginosa; [7]): 1.2 | fold induction at 50 µM [1, 8]: 1.3 | fold induction at 50 µM [2, 9]: 1.4

COc1ccc(CN(CCN(C)C)c2ccccn2)cc1 [Pyrilamine maleate]
fold induction at 50 µM (K. pneumoniae; planktonic K. pneumoniae, 384-well, […], read-out: AK-based Prestwick Library Screening Results: K. pneumoniae (increase in extracellular AK activity)): 1 | fold induction at 50 µM (E. coli; planktonic E. coli, 384-well, […], read-out: AK-based Prestwick Library Screening Results: E. coli (increase in extracellular AK activity)): 1.4 | fold induction at 50 µM (E. faecium; planktonic E. faecium, 384-well, […], read-out: AK-based Prestwick Library Screening Results: E. faecium (increase in extracellular AK activity)): 1.2 | fold induction at 50 µM (E. cloacae; planktonic E. cloacae, 384-well, […], read-out: AK-based Prestwick Library Screening Results: E. cloacae (increase in extracellular AK activity)): 1.4 | fold induction at 50 µM (P. aeruginosa; planktonic P. aeruginosa, 384-well, […], read-out: AK-based Prestwick Library Screening Results: P. aeruginosa (increase in extracellular AK activity)): 1.1 | fold induction at 50 µM ([1]; planktonic S. aureus, 384-well, […], read-out: AK-based Prestwick Library Screening Results: S. aureus (increase in extracellular AK activity)): 1.4 | fold induction at 50 µM ([2]; planktonic A. baumannii, 384-well, […], read-out: AK-based Prestwick Library Screening Results: A. baumannii (increase in extracellular AK activity)): 1.1

CCc1nc(N)nc(N)c1-c1ccc(Cl)cc1 [Pyrimethamine]
fold induction at 50 µM (K. pneumoniae; 384-well format, cutoff for positive-scoring molecules 3-fold increase, read-out: AK-based Prestwick Library Screening Results, K. pneumoniae (increase in extracellular AK activity)): 0.7 | fold induction at 50 µM (E. coli; 384-well format, cutoff for positive-scoring molecules 3-fold increase, read-out: AK-based Prestwick Library Screening Results, E. coli (increase in extracellular AK activity)): 1.4 | fold induction at 50 µM (E. faecium; 384-well format, cutoff for positive-scoring molecules 3-fold increase, read-out: AK-based Prestwick Library Screening Results, E. faecium (increase in extracellular AK activity)): 1 | fold induction at 50 µM (E. cloacae; 384-well format, cutoff for positive-scoring molecules 3-fold increase, read-out: AK-based Prestwick Library Screening Results, E. cloacae (increase in extracellular AK activity)): 1.3 | fold induction at 50 µM (P. aeruginosa; 384-well format, cutoff for positive-scoring molecules 3-fold increase, read-out: AK-based Prestwick Library Screening Results, P. aeruginosa (increase in extracellular AK activity)): 0.9 | fold induction at 50 µM ([1]; 384-well format, cutoff for positive-scoring molecules 3-fold increase, read-out: AK-based Prestwick Library Screening Results, S. aureus (increase in extracellular AK activity)): 0.7 | fold induction at 50 µM ([2]; 384-well format, cutoff for positive-scoring molecules 3-fold increase, read-out: AK-based Prestwick Library Screening Results, A. baumannii (increase in extracellular AK activity)): 2.5

CCC1(CC)C(=O)C=CNC1=O [Pyrithyldione]
fold induction at 50 µM (K. pneumoniae; [3]): 0.6 | fold induction at 50 µM (E. coli; [4]): 0.7 | fold induction at 50 µM (E. faecium; [5]): 0.8 | fold induction at 50 µM (E. cloacae; [6]): 0.7 | fold induction at 50 µM (P. aeruginosa; [7]): 0.6 | fold induction at 50 µM [1, 8]: 0.6 | fold induction at 50 µM [2, 9]: 0.5

Cc1cc(/C=C/c2ccc3cc(N(C)C)ccc3[n+]2C)c(C)n1-c1ccccc1 [Pyrvinium pamoate]
fold induction at 50 µM (K. pneumoniae; planktonic K. pneumoniae, positive cutoff 3-fold increase, read-out: AK-based Prestwick library screening result, K. pneumoniae (fold increase in extracellular AK activity)): 0.8 | fold induction at 50 µM (E. coli; planktonic E. coli, positive cutoff 3-fold increase, read-out: AK-based Prestwick library screening result, E. coli (fold increase in extracellular AK activity)): 0.8 | fold induction at 50 µM (E. faecium; planktonic E. faecium, positive cutoff 3-fold increase, read-out: AK-based Prestwick library screening result, E. faecium (fold increase in extracellular AK activity)): 1.5 | fold induction at 50 µM (E. cloacae; planktonic E. cloacae, positive cutoff 3-fold increase, read-out: AK-based Prestwick library screening result, E. cloacae (fold increase in extracellular AK activity)): 13.2 | fold induction at 50 µM (P. aeruginosa; planktonic P. aeruginosa, positive cutoff 3-fold increase, read-out: AK-based Prestwick library screening result, P. aeruginosa (fold increase in extracellular AK activity)): 0.7 | fold induction at 50 µM ([1]; planktonic S. aureus, positive cutoff 3-fold increase, read-out: AK-based Prestwick library screening result, S. aureus (fold increase in extracellular AK activity)): 1.4 | fold induction at 50 µM ([2]; planktonic A. baumannii, positive cutoff 3-fold increase, read-out: AK-based Prestwick library screening result, A. baumannii (fold increase in extracellular AK activity)): 0.9

O=c1c(O)c(-c2ccc(O)c(O)c2)oc2cc(O)cc(O)c12 [Quercetine dihydrate]
fold induction at 50 µM (K. pneumoniae; planktonic K. pneumoniae, […], read-out: AK-based Prestwick Library Screening Results, K. pneumoniae (increase in extracellular AK activity)): 0.6 | fold induction at 50 µM (E. coli; planktonic E. coli, […], read-out: AK-based Prestwick Library Screening Results, E. coli (increase in extracellular AK activity)): 0.7 | fold induction at 50 µM (E. faecium; planktonic E. faecium, […], read-out: AK-based Prestwick Library Screening Results, E. faecium (increase in extracellular AK activity)): 0.8 | fold induction at 50 µM (E. cloacae; planktonic E. cloacae, […], read-out: AK-based Prestwick Library Screening Results, E. cloacae (increase in extracellular AK activity)): 0.9 | fold induction at 50 µM (P. aeruginosa; planktonic P. aeruginosa, […], read-out: AK-based Prestwick Library Screening Results, P. aeruginosa (increase in extracellular AK activity)): 0.6 | fold induction at 50 µM ([1]; planktonic S. aureus, […], read-out: AK-based Prestwick Library Screening Results, S. aureus (increase in extracellular AK activity)): 0.1 | fold induction at 50 µM ([2]; planktonic A. baumannii, […], read-out: AK-based Prestwick Library Screening Results, A. baumannii (increase in extracellular AK activity)): 0.4
